According to patent publication US9587005B2 (priority 2010, dated 2017):
Read-outs that look alike come from different tables or passages of the source. *1 amine or outer side, *2 acyl side, *3 side chain or, on linkers, in order; H or OH if unused. Where a SMILES comes first, the peptide text is derived from it. Side-chain parts run from the residue outwards. [ ]: non-standard residue; d: D form. The star is where a group is joined. γGlu = O=C(O)[C@H](CCC(=O)[*:2])N[*:1]; Palmitoyl = CCCCCCCCCCCCCCCC(=O)*; Aib = CC(C)(N)C(=O)O

Target: T1, GLP-1 receptor (Homo sapiens, UniProt P43220)
T1 construct: expressed in transfected cells; host or cells: HEK293
Assay: cAMP induction, firefly luciferase reporter assay in HEK293 cells co-transfected with GLP-1 receptor
Format: cell-based
Source text: This example describes an exemplary method of testing the biological activity of the peptides of the present disclosures, which method involves assaying cAMP synthesis.

[1] = EC50 (nM) at GLP-1 Receptor, Table 6, Example 12

T1 sequence (P43220 24-463): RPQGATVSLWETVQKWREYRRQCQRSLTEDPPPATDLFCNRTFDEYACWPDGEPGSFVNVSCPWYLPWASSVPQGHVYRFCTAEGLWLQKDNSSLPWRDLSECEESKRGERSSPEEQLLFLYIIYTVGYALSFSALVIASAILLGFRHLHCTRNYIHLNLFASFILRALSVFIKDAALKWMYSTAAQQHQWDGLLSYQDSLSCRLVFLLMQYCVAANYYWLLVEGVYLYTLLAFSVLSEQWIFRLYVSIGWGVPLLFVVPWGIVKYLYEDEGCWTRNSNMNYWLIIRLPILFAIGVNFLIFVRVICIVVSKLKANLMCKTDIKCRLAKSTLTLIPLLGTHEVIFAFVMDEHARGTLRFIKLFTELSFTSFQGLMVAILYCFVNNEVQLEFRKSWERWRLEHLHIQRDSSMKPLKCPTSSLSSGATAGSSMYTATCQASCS

With CC[C@H](C)[C@H](NC(=O)[C@H](CO)NC(=O)[C@H](Cc1ccc(O)cc1)NC(=O)[C@H](CC(=O)O)NC(=O)[C@H](CO)NC(=O)[C@@H](NC(=O)[C@H](Cc1ccccc1)NC(=O)[C@@H](NC(=O)CNC(=O)[C@H](CCC(N)=O)NC(=O)[C@@H](CO)NC(=O)[C@@H](N)Cc1ccc(O)cc1)[C@@H](C)O)[C@@H](C)O)C(=O)N[C@@H](Cc1ccc(O)cc1)C(=O)N[C@@H](CC(C)C)C(=O)N[C@@H](CC(=O)O)C(=O)N[C@@H](CCCCN)C(=O)N[C@@H](CCC(N)=O)C(=O)N[C@@H](C)C(=O)N[C@@H](C)C(=O)NC(C)(C)C(=O)N[C@@H](CCC(=O)O)C(=O)N[C@@H](Cc1ccccc1)C(=O)N[C@H](C(=O)N[C@@H](CC(N)=O)C(=O)N[C@@H](Cc1c[nH]c2ccccc12)C(=O)N[C@@H](CC(C)C)C(=O)N[C@@H](CC(C)C)C(=O)N[C@@H](C)C(=O)NCC(=O)NCC(=O)N1CCC[C@H]1C(=O)N[C@@H](CO)C(=O)N[C@@H](CO)C(=O)NCC(=O)N[C@@H](C)C(=O)N1CCC[C@H]1C(=O)N1CCC[C@H]1C(=O)N1CCC[C@H]1C(=O)N[C@@H](CO)C(=O)N[C@@H](CS)C(N)=O)C(C)C [compound 50] the EC50 [1] was 0.108 nM.

For CCCCCCCCCCCCCCCC(=O)N[C@@H](CCC(=O)NCCCC[C@H](NC(=O)[C@H](CC(=O)O)NC(=O)[C@H](CO)NC(=O)[C@@H](NC(=O)[C@H](Cc1ccccc1)NC(=O)[C@@H](NC(=O)CNC(=O)[C@H](CCC(=O)O)NC(=O)C(C)(C)NC(=O)[C@@H](N)Cc1c[nH]cn1)[C@@H](C)O)[C@@H](C)O)C(=O)N[C@@H](CO)C(=O)N[C@@H](CCCCN)C(=O)N[C@@H](Cc1ccc(O)cc1)C(=O)N[C@@H](CC(C)C)C(=O)N[C@@H](CC(=O)O)C(=O)N[C@@H](CCC(=O)O)C(=O)N[C@@H](CCCNC(=N)N)C(=O)N[C@@H](C)C(=O)N[C@@H](C)C(=O)N[C@@H](CCC(N)=O)C(=O)N[C@@H](CC(=O)O)C(=O)N[C@@H](Cc1ccccc1)C(=O)N[C@H](C(=O)N[C@@H](CCC(N)=O)C(=O)N[C@@H](Cc1c[nH]c2ccccc12)C(=O)N[C@@H](CC(C)C)C(=O)N[C@@H](CC(C)C)C(=O)N[C@@H](CC(=O)O)C(=O)NCC(=O)NCC(=O)N1CCC[C@H]1C(=O)N[C@@H](CO)C(=O)N[C@@H](CO)C(=O)NCC(=O)N[C@@H](C)C(=O)N1CCC[C@H]1C(=O)N1CCC[C@H]1C(=O)N1CCC[C@H]1C(=O)N[C@@H](CO)C(N)=O)C(C)C)C(=O)O [compound 80] (H-H[Aib]EGTFTSDK([γGlu-Palmitoyl])SKYLDERAAQDFVQWLLDGGPSSGAPPPS-NH2; N-terminus assumed), the EC50 [1] was 0.008 nM.

In the case of CC[C@H](C)[C@H](NC(=O)[C@H](CO)NC(=O)[C@H](Cc1ccc(O)cc1)NC(=O)[C@H](CC(=O)O)NC(=O)[C@H](CO)NC(=O)[C@@H](NC(=O)[C@H](Cc1ccccc1)NC(=O)[C@@H](NC(=O)CNC(=O)[C@H](CCC(N)=O)NC(=O)C(C)(C)NC(=O)[C@@H](N)Cc1c[nH]cn1)[C@@H](C)O)[C@@H](C)O)C(=O)N[C@@H](Cc1ccc(O)cc1)C(=O)N[C@@H](CC(C)C)C(=O)N[C@@H](CC(=O)O)C(=O)N[C@@H](CCC(=O)O)C(=O)N[C@@H](CCCCN)C(=O)N[C@@H](CCCNC(=N)N)C(=O)N[C@@H](C)C(=O)N[C@@H](CCCCN)C(=O)N[C@@H](CCC(=O)O)C(=O)N[C@@H](Cc1ccccc1)C(=O)N[C@H](C(=O)N[C@@H](CS)C(=O)N[C@@H](Cc1c[nH]c2ccccc12)C(=O)N[C@@H](CC(C)C)C(=O)N[C@@H](CC(C)C)C(=O)N[C@@H](C)C(=O)NCC(=O)NCC(=O)N1CCC[C@H]1C(=O)N[C@@H](CO)C(=O)N[C@@H](CO)C(=O)NCC(=O)N[C@@H](C)C(=O)N1CCC[C@H]1C(=O)N1CCC[C@H]1C(=O)N1CCC[C@H]1C(=O)N[C@@H](CO)C(=O)N[C@@H](CCCCN)C(N)=O)C(C)C [SEQ ID NO: 230] (H-H[Aib]QGTFTSDYSIYLDEKRAKEFVCWLLAGGPSSGAPPPSK-NH2; N-terminus assumed), the EC50 (GLP-1 EC50 (nM), Table 17, Example 25) is reported as 0.222 nM.

Molecule CCCCCCCCCCCCCCCC(=O)N[C@@H](CCC(=O)NCCCC[C@H](NC(=O)[C@H](CC(=O)O)NC(=O)[C@H](CO)NC(=O)[C@@H](NC(=O)[C@H](Cc1ccccc1)NC(=O)[C@@H](NC(=O)CNC(=O)[C@H](CCC(=O)O)NC(=O)C(C)(C)NC(=O)[C@@H](N)Cc1c[nH]cn1)[C@@H](C)O)[C@@H](C)O)C(=O)N[C@@H](CO)C(=O)N[C@@H](CCCCN)C(=O)N[C@@H](Cc1ccc(O)cc1)C(=O)N[C@@H](CC(C)C)C(=O)N[C@@H](CC(=O)O)C(=O)N[C@@H](CCC(=O)O)C(=O)N[C@@H](CCCNC(=N)N)C(=O)N[C@@H](CCCNC(=N)N)C(=O)N[C@@H](C)C(=O)NC(C)(C)C(=O)N[C@@H](CCC(=O)O)C(=O)N[C@@H](Cc1ccccc1)C(=O)N[C@H](C(=O)N[C@@H](CCC(N)=O)C(=O)N[C@@H](Cc1c[nH]c2ccccc12)C(=O)N[C@@H](CC(C)C)C(=O)N[C@@H](CC(C)C)C(=O)N[C@@H](CC(=O)O)C(=O)NCC(=O)NCC(=O)N1CCC[C@H]1C(=O)N[C@@H](CO)C(=O)N[C@@H](CO)C(=O)NCC(=O)N[C@@H](C)C(=O)N1CCC[C@H]1C(=O)N1CCC[C@H]1C(=O)N1CCC[C@H]1C(=O)N[C@@H](CO)C(N)=O)C(C)C)C(=O)O [compound 38] (H-H[Aib]EGTFTSDK([γGlu-Palmitoyl])SKYLDERRA[Aib]EFVQWLLDGGPSSGAPPPS-NH2; N-terminus assumed) has an EC50 (EC50 (nM) at GLP-1 Receptor, Table 4, Example 9, composite of multiple different activity assays) of 0.008 nM.

CC[C@H](C)[C@H](NC(=O)[C@H](CO)NC(=O)[C@H](Cc1ccc(O)cc1)NC(=O)[C@H](CC(=O)O)NC(=O)[C@H](CO)NC(=O)[C@@H](NC(=O)[C@H](Cc1ccccc1)NC(=O)[C@@H](NC(=O)CNC(=O)[C@H](CCC(N)=O)NC(=O)C(C)(C)NC(=O)[C@@H](N)Cc1ccc(O)cc1)[C@@H](C)O)[C@@H](C)O)C(=O)N[C@@H](Cc1ccc(O)cc1)C(=O)N[C@@H](CC(C)C)C(=O)N[C@@H](CC(=O)O)C(=O)N[C@@H](CCCCN)C(=O)N[C@@H](CCCCN)C(=O)N[C@@H](C)C(=O)N[C@@H](C)C(=O)NC(C)(C)C(=O)N[C@@H](CCC(=O)O)C(=O)N[C@@H](Cc1ccccc1)C(=O)N[C@H](C(=O)N[C@@H](CC(N)=O)C(=O)N[C@@H](Cc1c[nH]c2ccccc12)C(=O)N[C@@H](CC(C)C)C(=O)N[C@@H](CC(C)C)C(=O)N[C@@H](C)C(=O)NCC(=O)NCC(=O)N1CCC[C@H]1C(=O)N[C@@H](CO)C(=O)N[C@@H](CO)C(=O)NCC(=O)N[C@@H](C)C(=O)N1CCC[C@H]1C(=O)N1CCC[C@H]1C(=O)N1CCC[C@H]1C(=O)N[C@@H](CO)C(=O)N[C@@H](CCCCN)C(N)=O)C(C)C [mt-402] was tested, and the EC50 (read-out: GLP-1 Receptor EC50, Table 1, Example 6) was 0.007 nM.
